The source of these data is patent publication US20110144064A1, “Inhibitors of Kynurenine Aminotransferase and Uses Therefor” (priority 2005, published 2011).

Several values for one entry are separate records, joined by “and”; a condition that tells them apart may be missing. Equal entries are not always repeated.

The target of one experiment is T1, rat liver partially purified KAT II (Rattus norvegicus, UniProt Q64602).
T1 construct: rat liver partially purified KAT II; from tissue; host or cells: rat liver
T1 sequence (Q64602 30-425): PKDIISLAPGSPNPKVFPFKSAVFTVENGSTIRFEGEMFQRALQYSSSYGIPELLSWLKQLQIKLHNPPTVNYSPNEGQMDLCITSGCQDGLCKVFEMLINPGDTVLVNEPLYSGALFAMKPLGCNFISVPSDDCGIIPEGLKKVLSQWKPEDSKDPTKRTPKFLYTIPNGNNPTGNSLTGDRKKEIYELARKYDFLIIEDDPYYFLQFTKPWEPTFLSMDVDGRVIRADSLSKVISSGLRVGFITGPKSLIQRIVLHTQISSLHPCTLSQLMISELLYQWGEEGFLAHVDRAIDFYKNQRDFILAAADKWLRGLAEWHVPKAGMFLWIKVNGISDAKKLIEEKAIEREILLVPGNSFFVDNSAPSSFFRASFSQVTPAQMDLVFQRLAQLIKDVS
The experiment can be described thus: Inhibition of kynurenine aminotransferase II activity ([3H]-kynurenine to [3H]-kynurenic acid). Format: biochemical. To be noted: IC50 kynurenine aminotransferase II. The protocol: Compounds were tested as inhibitors of kynurenine aminotransferase II and the IC50 values determined. For the determination of the KAT II activity, 80 μl of rat liver partially purified KAT II was incubated (2 hrs at 37° C. with 100 μl of 150 mM Tris-acetate (pH 7.4), 2 μM kynurenine, (2.5 nCi) [^3H]-kynurenine 1 mM pyruvate and 70 μM pyridoxal-5′-phosphate. Add 20 μl of the inhibitor solution (10×). The reaction was terminated by the addition of 14 μl of 50% trichloroacetic acid and 1 ml of 0.1 N hydrochloric acid. The denaturated protein was removed by centrifugation and 1 ml of the supernatant was applied to a Dowex 50 W H^+ cation exchange column which was then washed with 1 ml of 0.1 N hydrochloric acid followed by 1 ml of ultrapure water. [^3H]-Kynurenic acid formed was subsequently eluted with 2×1 ml of ultrapure water and radioactivity was quantified by liquid scintillation spectrometry.
All compounds are in the racemic form, when applicable, unless indicated otherwise. Other untested compounds are commercially available or easily synthesized using standard synthetic methods. Data are presented as IC50 values in μM for all tested compounds. Blanks are untested compounds.
For `NC(CCCCCC(=O)O)C(=O)O` (racemic) [n=5, R^1 = NH^2, DL-2-amino-1,8-octanedioic acid], the IC50 (usually the concentration at which inhibition is half-maximal) worked out at 272 µM.

Still in this experiment, the particulars now being: IC50 kynurenine aminotransferase II, rat liver partially purified KAT II, 2 hrs at 37° C., pH 7.4, 2 μM kynurenine, 1 mM pyruvate.
Turning to `NC(CCC(=O)O)C(=O)O` (racemic) [n=2, R^1 = NH^2, DL-2-amino-1,5-pentanedioic acid], the midpoint of inhibition, the IC50, lay at 2250 µM.

In turn, `NC(CCP(=O)(O)O)C(=O)O` (racemic) [n=2, X = PO3H2 (DL), DL-2-amino-4-phosphonobutyric acid] displayed an IC50 of 505 µM.

For the compound `NC(CCCCCP(=O)(O)O)C(=O)O` (stereo not drawn) [n=5, X = PO3H2 (DL), 2-amino-7-phosphonoheptanoic acid], inhibition was half-maximal at 1460 µM (IC50).

Staying with this experiment, now noted: rat liver partially purified KAT II, 2 hrs at 37° C., pH 7.4, 2 μM kynurenine, 1 mM pyruvate.
With `O=C(O)CC(=O)O` [n=0, R^1 = H], the “IC50 kynurenine aminotransferase II” value was “inactive”.

Consider `O=C(O)CCC(=O)O` [n=1, R^1 = H], for which the “IC50 kynurenine aminotransferase II” value was “inactive”.

Consider `O=C(O)CCCC(=O)O` [n=2, R^1 = H], for which the “IC50 kynurenine aminotransferase II” value is “inactive”.

On to `O=C(O)CCCCCCC(=O)O` [n=5, R^1 = H], for which the “IC50 kynurenine aminotransferase II” value is “inactive”.

The same experiment, now with this note: rat liver partially purified KAT II, 2 hrs at 37° C., pH 7.4, 2 μM kynurenine, 1 mM pyruvate; read-out: IC50 kynurenine aminotransferase II.
In the case of `CC(N)(CCCCCCCCCCCCCC(=O)O)C(=O)O` (racemic) [DL-2-amino-2-methyl-1,16-hexadecanedioic acid], the IC50 is 53.7 µM.

`CNC(CCCCCCCCCCCCCC(=O)O)C(=O)O` (racemic) [DL-2-methylamino-1,16-hexadecanedioic acid]: the IC50 is 29.3 µM.

For `NC(CC(=O)O)C(=O)O` (racemic) [n=1, R^1 = NH^2, DL-2-amino-1,4-butanedioic acid], the half-inhibitory concentration (IC50) amounted to 2460 µM.

In the case of `NC(CCCC(=O)O)C(=O)O` (racemic) [n=3, R^1 = NH^2, DL-2-amino-1,6-hexanedioic acid], the IC50 is 18 µM.

Consider `NC(CCCP(=O)(O)O)C(=O)O` (racemic) [n=3, X = PO3H2 (DL), DL-2-amino-5-phosphonopentanoic acid], for which the IC50 was 1000 µM.

As for `NC(CCCCC(=O)O)C(=O)O` (racemic) [n=4, R^1 = NH^2, DL-2-amino-1,7-heptanedioic acid], the IC50 was determined as 14 µM.

Turning to `NC(CCCCCCC(=O)O)C(=O)O` (racemic) [n=6, R^1 = NH^2, DL-2-amino-1,9-nonanedioic acid], the IC50 was 355 µM.

For the compound `NC(CCCCCCCCC(=O)O)C(=O)O` (racemic) [n=8, R^1 = NH^2, DL-2-amino-1,11-undecanedioic acid], the IC50 was determined as 7 µM.

With `NC(CCCCCCCCCC(=O)O)C(=O)O` (racemic) [n=9, R^1 = NH^2, DL-2-amino-1,12-dodecandioic acid], the IC50 came out at 8 µM.

In the case of `NC(CCCCCCCCCCC(=O)O)C(=O)O` (racemic) [n=10, R^1 = NH^2, DL-2-amino-1,13-tridecanedioic acid], the half-inhibitory concentration (IC50) came to 7 µM.

For `NC(CCCCCCCCCCCCCC(=O)O)C(=O)O` (racemic) [n=13, R^1 = NH^2, DL-2-amino-1,16-hexadecanedioic acid], the IC50 is 6 µM and 6.4 µM.

As for `NC(CCCCCCCCCCCCCCC(=O)O)C(=O)O` (racemic) [n=14, R^1 = NH^2, DL-2-amino-1,17-heptadecanedioic acid], the concentration for half-maximal inhibition (IC50) worked out at 85 µM.

For the compound `O=C(O)CCCCCCCCCCCCCCCO` [n = 13, R1, R2 = H, X = CH2OH, 16-hydroxyhexadecanoic acid], the IC50 turned out to be 149 µM.

`N[C@@H](CS(=O)O)C(=O)O` [n=1, X = S02H (L), cysteinesulfinic acid]: the concentration for half-maximal inhibition (IC50) stood at 1150 µM.

Take `NC(CS(=O)(=O)O)C(=O)O` (centres unmarked) [n=1, X = SO3H (L), 2-amino-3-sulfopropionic acid]: the IC50 turned out to be 739 µM.

`N[C@@H](CCS(=O)O)C(=O)O` [n=2, X = S02H (L), homocysteinesulfinic acid]: the IC50 was 224 µM.

On to `NC(CCS(=O)(=O)O)C(=O)O` (centres unmarked) [n=2, X = SO3H (L), 2-amino-4-sulfobutyric acid], for which the half-inhibitory concentration (IC50) turned out to be 63 µM.

On to `O=C(O)CCCCC(=O)O` [n=3, R^1 = H, 1,6-hexanedioic acid], for which the 50% inhibitory concentration (IC50) worked out at 1290 µM.

Turning to `O=C(O)CCCCCC(=O)O` [n=4, R^1 = H, 1,7-heptanedioic acid], the IC50 worked out at 6370 µM.

Take `O=C(O)CCCCCCCC(=O)O` [n=6, R^1 = H, 1,9-nonanedioic acid]: the half-inhibitory concentration (IC50) is 4580 µM.

In the case of `O=C(O)CCCCCCCCC(=O)O` [n=7, R^1 = H, 1,10-decanedioic acid], the concentration for half-maximal inhibition (IC50) was found to be 720 µM.

On to `O=C(O)CCCCCCCCCC(=O)O` [n=8, R^1 = H, 1,11-undecanedioic acid], for which the half-maximal inhibitory concentration (IC50) stood at 234 µM.

With `O=C(O)CCCCCCCCCCC(=O)O` [n=9, R^1 = H, 1,12-dodecanedioic acid], the half-maximal inhibitory concentration (IC50) was 256 µM.

`O=C(O)CCCCCCCCCCCC(=O)O` [n=10, R^1 = H, 1,13-tridecanedioic acid]: the IC50 amounted to 170 µM.

Turning to `O=C(O)CCCCCCCCCCCCC(=O)O` [n=11, R^1 = H, 1,14-tetradecanedioic acid], the IC50 was determined as 102 µM.

As to `O=C(O)CCCCCCCCCCCCCC(=O)O` [n=12, R^1 = H, 1,15-pentadecanedioic acid], the IC50 worked out at 71 µM.

Regarding `O=C(O)CCCCCCCCCCCCCCC(=O)O` [n=13, R^1 = H, 1,16-hexadecanedioic acid], the half-inhibitory concentration (IC50) amounted to 60 µM.
